# HELM strings list units from the 5' end as sugar, base in round brackets, then linkage (d deoxyribose, r ribose, m 2'-O-methyl, p phosphodiester). Strings are as the collection lists them; they lack the last nucleoside at the 3' end of the tested compound. [moe] = 2'-O-(2-methoxyethyl) (MOE); [sp] = phosphorothioate linkage; [m5C] = 5-methylcytosine
# Target: UBE3A-ATS
# Assay: mouse, dose not given
# Details: ASO
substance,measurement,value
RNA1{[moe](G)[sp].[moe](T)p.[moe]([m5C])p.[moe](A)p.[moe](T)p.d([m5C])[sp].d(A)[sp].d([m5C])[sp].d([m5C])[sp].d(T)[sp].d([m5C])[sp].d(T)[sp].d([m5C])[sp].d(T)[sp].d(T)[sp].[moe]([m5C])p.[moe](A)p.[moe](G)[sp].[moe](G)}$$$$ (last 3' nucleoside missing),3 h FOB score,1 score 0-7
RNA1{[moe](G)[sp].[moe](T)p.[moe]([m5C])p.[moe](A)p.[moe](T)p.d([m5C])[sp].d(T)[sp].d([m5C])[sp].d(G)[sp].d(G)[sp].d(G)[sp].d(T)[sp].d(A)[sp].d(T)[sp].d(A)[sp].[moe](T)p.[moe](A)p.[moe](A)[sp].[moe](A)}$$$$ (last 3' nucleoside missing),3 h FOB score,5.5 score 0-7
RNA1{[moe](G)[sp].[moe](T)p.[moe]([m5C])p.[moe](A)p.d(T)[sp].d([m5C])[sp].d(T)[sp].d([m5C])[sp].d(G)[sp].d(G)[sp].d(G)[sp].d(T)[sp].d(A)[sp].d(T)[sp].[moe](A)p.[moe](T)p.[moe](A)p.[moe](A)[sp].[moe](A)}$$$$ (last 3' nucleoside missing),3 h FOB score,4 score 0-7
RNA1{[moe](G)[sp].[moe](T)p.[moe]([m5C])p.[moe](T)p.[moe](T)p.d([m5C])[sp].d(A)[sp].d(T)[sp].d(T)[sp].d(A)[sp].d(T)[sp].d(T)[sp].d([m5C])[sp].d(T)[sp].d([m5C])[sp].[moe](T)p.[moe](A)p.[moe](G)[sp].[moe](T)}$$$$ (last 3' nucleoside missing),3 h FOB score,4.7 score 0-7
RNA1{[moe](G)[sp].[moe](T)p.[moe]([m5C])p.[moe](T)p.[moe]([m5C])p.d(T)[sp].d(G)[sp].d([m5C])[sp].d(T)[sp].d([m5C])[sp].d(A)[sp].d(G)[sp].d(T)[sp].d(T)[sp].d(A)[sp].[moe](G)p.[moe](G)p.[moe](T)[sp].[moe](T)}$$$$ (last 3' nucleoside missing),3 h FOB score,1 score 0-7
RNA1{[moe](G)[sp].[moe](T)p.[moe]([m5C])p.[moe](T)p.[moe]([m5C])p.d([m5C])[sp].d([m5C])[sp].d(T)[sp].d([m5C])[sp].d(T)[sp].d(T)[sp].d(A)[sp].d(G)[sp].d(T)[sp].d(G)[sp].[moe](A)p.[moe](T)p.[moe](T)[sp].[moe](G)}$$$$ (last 3' nucleoside missing),3 h FOB score,4 score 0-7
RNA1{[moe](G)[sp].[moe]([m5C])[sp].[moe]([m5C])[sp].[moe](T)[sp].[moe](A)[sp].d(A)[sp].d(T)[sp].d(A)[sp].d(T)[sp].d(G)[sp].d(T)[sp].d(G)[sp].d(T)[sp].d([m5C])[sp].d(A)[sp].[moe](T)[sp].[moe]([m5C])[sp].[moe]([m5C])[sp].[moe](T)}$$$$ (last 3' nucleoside missing),3 h FOB score,6.8 score 0-7
RNA1{[moe](G)[sp].[moe]([m5C])[sp].[moe]([m5C])[sp].[moe]([m5C])[sp].[moe](A)[sp].d(T)[sp].d(G)[sp].d(G)[sp].d(A)[sp].d(T)[sp].d(G)[sp].d(G)[sp].d(T)[sp].d(T)[sp].d(G)[sp].[moe](T)[sp].[moe]([m5C])[sp].[moe](A)[sp].[moe](A)}$$$$ (last 3' nucleoside missing),3 h FOB score,7 score 0-7
RNA1{[moe](G)[sp].[moe]([m5C])p.[moe](A)p.[moe](A)p.[moe](A)p.d(T)[sp].d(A)[sp].d([m5C])[sp].d(A)[sp].d(A)[sp].d(T)[sp].d(G)[sp].d(G)[sp].d(T)[sp].d(A)[sp].[moe](A)p.[moe](T)p.[moe]([m5C])[sp].[moe](G)}$$$$ (last 3' nucleoside missing),3 h FOB score,4.2 score 0-7
RNA1{[moe](G)[sp].[moe]([m5C])p.[moe](A)p.[moe](A)p.[moe](T)p.d(G)[sp].d(G)[sp].d(A)[sp].d([m5C])[sp].d(T)[sp].d(T)[sp].d(A)[sp].d(G)[sp].d(T)[sp].d(A)[sp].[moe]([m5C])p.[moe](A)p.[moe]([m5C])[sp].[moe](A)}$$$$ (last 3' nucleoside missing),3 h FOB score,1 score 0-7
RNA1{[moe](G)[sp].[moe]([m5C])p.[moe](A)p.[moe](G)p.[moe]([m5C])p.d(T)[sp].d([m5C])[sp].d(T)[sp].d(T)[sp].d(T)[sp].d(G)[sp].d(T)[sp].d(A)[sp].d(G)[sp].d(G)[sp].[moe]([m5C])p.[moe]([m5C])p.[moe]([m5C])[sp].[moe](A)}$$$$ (last 3' nucleoside missing),3 h FOB score,3.3 score 0-7
RNA1{[moe](G)[sp].[moe]([m5C])p.[moe](A)p.[moe](T)[sp].d(A)[sp].d([m5C])[sp].d([m5C])[sp].d([m5C])[sp].d(A)[sp].d(G)[sp].d(G)[sp].d(G)[sp].[moe](T)p.[moe](A)p.[moe](G)p.[moe](G)[sp].[moe](A)}$$$$ (last 3' nucleoside missing),3 h FOB score,0 score 0-7
RNA1{[moe](G)[sp].[moe]([m5C])p.[moe](A)p.[moe](T)p.[moe](A)[sp].d([m5C])[sp].d([m5C])[sp].d([m5C])[sp].d(A)[sp].d(G)[sp].d(G)[sp].d(G)[sp].d(T)[sp].[moe](A)p.[moe](G)p.[moe](G)[sp].[moe](A)}$$$$ (last 3' nucleoside missing),3 h FOB score,1 score 0-7
RNA1{[moe](G)[sp].[moe]([m5C])p.[moe](A)p.[moe](T)p.[moe](A)p.[moe]([m5C])[sp].d([m5C])[sp].d([m5C])[sp].d(A)[sp].d(G)[sp].d(G)[sp].d(G)[sp].d(T)[sp].d(A)[sp].[moe](G)p.[moe](G)[sp].[moe](A)}$$$$ (last 3' nucleoside missing),3 h FOB score,1 score 0-7
RNA1{[moe](G)[sp].[moe]([m5C])p.[moe](A)p.[moe](T)p.[moe](A)p.[moe]([m5C])p.d([m5C])[sp].d([m5C])[sp].d(A)[sp].d(G)[sp].d(G)[sp].d(G)[sp].d(T)[sp].d(A)[sp].d(G)[sp].d(G)[sp].[moe](A)p.[moe](T)[sp].[moe](T)}$$$$ (last 3' nucleoside missing),3 h FOB score,1 score 0-7
RNA1{[moe](G)[sp].[moe]([m5C])p.[moe](A)p.[moe](T)p.[moe](A)p.d([m5C])[sp].d([m5C])[sp].d([m5C])[sp].d(A)[sp].d(G)[sp].d(G)[sp].d(G)[sp].d(T)[sp].d(A)[sp].d(G)[sp].[moe](G)p.[moe](A)p.[moe](T)[sp].[moe](T)}$$$$ (last 3' nucleoside missing),3 h FOB score,3 score 0-7
RNA1{[moe](G)[sp].[moe]([m5C])p.[moe](A)p.[moe](T)p.[moe](G)p.d(A)[sp].d(T)[sp].d(T)[sp].d([m5C])[sp].d(T)[sp].d(A)[sp].d(A)[sp].d([m5C])[sp].d([m5C])[sp].d(A)[sp].[moe](T)p.[moe](A)p.[moe](G)[sp].[moe](A)}$$$$ (last 3' nucleoside missing),3 h FOB score,1 score 0-7
RNA1{[moe](G)[sp].[moe]([m5C])p.[moe](A)p.[moe](T)p.[moe](G)p.d(T)[sp].d(G)[sp].d(G)[sp].d(G)[sp].d([m5C])[sp].d([m5C])[sp].d(T)[sp].d([m5C])[sp].d(T)[sp].d(A)[sp].[moe](T)p.[moe](T)p.[moe](A)[sp].[moe](A)}$$$$ (last 3' nucleoside missing),3 h FOB score,4 score 0-7
RNA1{[moe](G)[sp].[moe]([m5C])p.[moe](A)p.[moe](T)p.[moe](T)p.d(G)[sp].d(G)[sp].d([m5C])[sp].d(T)[sp].d(T)[sp].d([m5C])[sp].d(A)[sp].d(T)[sp].d(A)[sp].d(T)[sp].[moe](T)p.[moe](T)p.[moe]([m5C])[sp].[moe](T)}$$$$ (last 3' nucleoside missing),3 h FOB score,1 score 0-7

# Reference: the OligoGym collection
